Results reported in patent publication US20230053540A1, “TREATMENT OF LIVER INJURY” (Massachusetts Institute of Technology, priority 2019, published 2023).

Test system: hepatocytes
Assay: Seq-Well scRNA-Seq of hepatocytes after APAP overdose (signature scores, DEG vs untreated)
Type: in vivo, mouse
Settings: APAP vs UT, composite DEG

CC(=O)Nc1ccc(O)cc1 [APAP, acetaminophen]
Fam134b logFC: 0.8936 | Fam214a logFC: −0.2658 | Fcgrt logFC: −0.2693 | Fdps logFC: −0.2663 | Fitm1 logFC: −0.3242 | Fkbp4 logFC: −0.3534 | Fmo5 logFC: 0.2862 | Fn1 logFC: 0.6996 | Fpgs logFC: −0.3494 | Ftl1 logFC: 1 | Furin logFC: 0.4056 | Fus logFC: 0.3393 | Fxyd5 logFC: 0.2743 | G0s2 logFC: 0.3465 | G6pc logFC: −0.9601 | Gabarap logFC: −0.4425 | Gabarapl1 logFC: 0.2607 | Gadd45g logFC: −0.614 | Gadd45gip1 logFC: −0.3041 | Gc logFC: 0.2598 | Gcdh logFC: −0.3003 | Gch1 logFC: −0.2825 | Gcnt2 logFC: 0.5375 | Gfra1 logFC: 0.3864 | Ggnbp2 logFC: 0.2726 | Ghr logFC: −0.3648 | Gjb1 logFC: −0.3166 | Glo1 logFC: −0.4066 | Gltscr2 logFC: 0.2553 | Glud1 logFC: 0.451 | Glyctk logFC: −0.2977 | Gm2a logFC: 0.3831 | Gm2788 logFC: −0.2831 | Gm4951 logFC: −0.3221 | Gm6484 logFC: 0.3043 | Gm10800 logFC: 0.5626 | Gm10801 logFC: 0.2659 | Gm23935 logFC: 1 | Gm24245 logFC: 0.5465 | Gm24270 logFC: 0.268 | Gne logFC: −0.4251 | Gnmt logFC: −0.4604 | Golga4 logFC: 0.3521 | Gpam logFC: 0.2504 | Gpld1 logFC: 0.3281 | Grhpr logFC: −0.3531 | Grlf1 logFC: 0.295 | Grn logFC: 0.5408 | Gsk3b logFC: 0.4065 | Gsta1 logFC: 0.4076 | Gsta3 logFC: −0.8063 | Gstk1 logFC: −0.2828 | Gstm4 logFC: −0.3809 | Gstp1 logFC: −0.8558 | Gstt3 logFC: 0.3507 | Gtpbp4 logFC: 0.4822 | Gyk logFC: 0.4024 | Gys2 logFC: 0.2744 | H6pd logFC: 0.3437 | Hadh logFC: 0.2888 | Hagh logFC: −0.674 | Hamp logFC: −1.021 | Hba-a1 logFC: 0.735 | Hba-a2 logFC: 0.5535 | Hbb-bt logFC: 1.43 | Hdac11 logFC: −0.3368 | Hdlbp logFC: 0.5651 | Herpud1 logFC: 0.5136 | Hgd logFC: −0.7586 | Hgfac logFC: 0.2522 | Hibch logFC: −0.3271 | Hint1 logFC: −0.6739 | Hipk3 logFC: 0.3394 | Hist1h1c logFC: −0.3009 | Hmgcl logFC: 0.4738 | Hmgcr logFC: 0.4167 | Hmgcs1 logFC: −0.3491 | Hnf4a logFC: 0.8791 | Hnrnpdl logFC: 0.398 | Hp logFC: 0.4313 | Hsd3b3 logFC: −0.7795 | Hsd3b5 logFC: −1.07 | Hsd3b7 logFC: −1.006 | Hsd17b4 logFC: 0.2532 | Hsd17b10 logFC: −0.3772 | Hsd17b13 logFC: 0.6808 | Hsp90ab1 logFC: 0.3227 | Hsp90b1 logFC: 0.5342 | Hspa5 logFC: 0.6105 | Hspa8 logFC: 0.4204 | Huwe1 logFC: 0.3879 | Hyou1 logFC: 0.8465 | Id3 logFC: −0.3511 | Ide logFC: 0.2517 | Ifrd1 logFC: 0.4904 | Igf1 logFC: 0.2958 | Iigp1 logFC: 0.7688 | Il1b logFC: 0.7429 | Il1r1 logFC: 1.245 | Il4ra logFC: 0.2574 | Il6ra logFC: 0.3044 | Ildr2 logFC: 0.2676 | Insig2 logFC: 0.67 | Ipo5 logFC: 0.2687 | Iqgap1 logFC: 0.4554 | Iqgap2 logFC: 0.2547 | Ireb2 logFC: 0.2657 | Itih3 logFC: 0.5462 | Itih4 logFC: 0.5251 | Jhdm1d logFC: 0.3041 | Kdelr2 logFC: 0.3977 | Khk logFC: −0.4915 | Kif1b logFC: 0.3718 | Kif5b logFC: 0.5012 | Kif21a logFC: 0.4042 | Klf3 logFC: 0.2674 | Klf6 logFC: 0.7324 | Klf9 logFC: 0.2934 | Kng1 logFC: 0.2658 | Krt8 logFC: 1.196 | Krt18 logFC: 1.258 | Lamp1 logFC: 0.2683 | Lap3 logFC: −0.3644 | Larp4b logFC: 0.3421 | Lasp1 logFC: 0.253 | Lcat logFC: 0.4361 | Lcp1 logFC: 0.484 | Lgals9 logFC: −0.27 | Lifr logFC: −0.6262 | Lipa logFC: 0.4183 | Litaf logFC: 0.3944 | Lpgat1 logFC: 0.5952 | Lpin2 logFC: 0.6867 | Lrg1 logFC: 0.4908 | Lrrc58 logFC: 1.001 | Lrrfip2 logFC: 0.3731 | Lsmd1 logFC: −0.3131 | Lyz2 logFC: 0.7322 | Macf1 logFC: 0.4042 | Magt1 logFC: 0.2633 | Man2a1 logFC: 0.4971 | Maob logFC: 0.3204 | Map3k5 logFC: 0.3347 | Mapk6 logFC: 0.2568 | Mat2a logFC: 0.4826 | Mbl2 logFC: −0.3465 | Mbnl1 logFC: 0.4513 | Mcee logFC: −0.3199 | Mcl1 logFC: 0.5709 | Mdh1 logFC: −0.3077 | Mdm2 logFC: 0.3283 | Med13 logFC: 0.2949 | Met logFC: 0.2883 | Metap2 logFC: 0.3686 | Mettl7a1 logFC: −0.3221 | Mettl7b logFC: −0.4527 | Mettl20 logFC: −0.3314 | Mgll logFC: 0.3339 | Mgst1 logFC: −1.06 | Mia3 logFC: 0.3646 | Mien1 logFC: −0.3704 | Mki67ip logFC: 0.3184 | Mlycd logFC: 0.313 | Mmp8 logFC: 0.359 | Mocs2 logFC: −0.3467 | Mpeg1 logFC: 0.4935 | Mrap logFC: 0.8841 | Mrc1 logFC: 0.3404 | Mrp63 logFC: −0.4422 | Mrpl12 logFC: −0.3082 | Mrpl33 logFC: −0.2654 | Mrps18c logFC: −0.3663 | Mrps24 logFC: −0.3904 | Mtdh logFC: 0.3047 | Mthfd2 logFC: 0.2624 | Mtss1 logFC: 0.2876 | Mttp logFC: 0.3115 | Mtus1 logFC: 0.3621 | Mup1 logFC: 1 | Mup4 logFC: −1.087 | Mup8 logFC: −0.7958 | Mup13 logFC: −0.7757 | Mup14 logFC: −0.7608 | Mup20 logFC: −0.4762 | Mxd1 logFC: 0.2978 | Mybbp1a logFC: 0.4312 | Myh9 logFC: 1.16 | Myl12a logFC: 0.3908 | Nadk2 logFC: 0.2579 | Naprt1 logFC: −0.3381 | Narf logFC: 0.2629 | Nars logFC: 0.4378 | Ncl logFC: 0.4845 | Ndufa1 logFC: −0.3645 | Ndufa2 logFC: −0.3965 | Ndufa3 logFC: −0.4116 | Ndufa4 logFC: −0.6831 | Ndufb3 logFC: −0.3272 | Ndufb8 logFC: −0.3481 | Ndufb10 logFC: −0.3004 | Ndufc1 logFC: −0.3444 | Ndufc2 logFC: −0.4253
